Assay results published in patent US11324794B2, “Composition for preventing, improving, or treating decrease in intestinal function, comprising bamboo shoot hydrolyzate or fermented bamboo shoot as active ingredient” (OZLDNF CO., LTD., priority 2017, dated 2022).

How the values were obtained:
Sprague Dawley (SD) rat [1] = assay: Measurement of number of feces and feces weight change in loperamide-induced constipation; assay type: in vivo; conditions: oral
Text: (§1) Laboratory […] under the following conditions were used. • Genealogy and Species: Sprague Dawley (SD) rat • Source: Samtaco Co., Ltd. • Number of purchased animals and gender: Male • Age (week) of purchased animals and weight range: 6 weeks, 190 to 220 • Number of animals (male) at the time of administration: 49 • Age (week) of animals and weight range at the time of administration: 7 weeks, 210 to 240 g.
(§2) After one week of acclimation, the test substance, that is, ioperamide as a conventional constipation inductive material, bisacodyl as a conventional constipation therapeutic agent, the enzyme-degraded products in Examples 1 and 2 (fermented for 24 hours) and the fermented products in Examples 3 and 4, respectively, were repeatedly administered in the stomach once a day for a total of 7 days by means of a syringe for oral administration (Sonde). Except for the control group (Con), all test groups were subjected to administration of loperamide (4 mg/kg) in order to induce constipation.
The feces were sampled daily and the number and weight of the feces were measured. Further, the sampled feces were dried in a drier at 70° C. for 24 hours.

Sprague Dawley (SD) rat [2] = assay: Measurement of water content of feces; assay type: in vivo; conditions: Bis group: loperamide 4 mg/kg + bisacodyl 4 mg/kg, oral; comparison group 29.98±1.89%
Text: as §1, §2
The feces were sampled daily and the number and weight of the feces were measured. Further, the sampled feces were dried in a drier at 70° C. for 24 hours. A percentage of water content was calculated by subtracting the weight after drying from the weight before drying to estimate the water content and converting the estimated value as the percentage to a total weight of the feces.

Sprague Dawley (SD) rat [3] = assay: Digestive tract migration rate (activated charcoal); assay type: in vivo; conditions: oral, 7th day, 30 minutes after charcoal
Text: as §1
as §2, with “Except for the control group (Con), all test groups were subjected to administration of loperamide (4 mg/kg) in order to induce constipation.” left out
After fasting a laboratory animal for 15 hours on the 7th day of constipation induction, a 0.5 ml suspension including 10% Arabic gum (Sigma, USA) and 5% activated charcoal (Sigma, USA) was orally administered to the animal. 30 minutes later, the animal was sacrificed, the gastrointestinal tract was removed, and a migration rate was calculated by dividing a length wherein green colored feces are excreted among the intestinal tract length between the duodenum and the rectum, with passage of time. […]

Sprague Dawley (SD) rat [4] = assay: Counting number of intestinal stools remaining in the colon tract; assay type: in vivo; conditions: oral, 8th day
Text: as §1, §2
The number of intestinal stools was counted by scarifying a laboratory rat on the 8th day after administration of loperamide and observing the number of feces remaining in the colon tract.
On the last day of the experiment, all laboratory animals were sacrificed and the number of feces remaining in the rectal region was measured.

[5] = Measurement of body weight, dietary intake and amount of drinking water; assay type: in vivo, Sprague Dawley (SD) rat; conditions: Lop group: loperamide 4 mg/kg alone, oral
Text: as §1
as §2, with “Except for the control group (Con), all test groups were subjected to administration of loperamide (4 mg/kg) in order to induce constipation.” left out
The body weight was measured twice a week on the day before the experiment when group separation was conducted, and twice a week on the day after administration, respectively. The experimental dietary intake was measured by feeding 100 g of test diet at a predetermined time and, after 24 hours, the remaining amount was measured to determine the dietary intake. The drinking water was fed by 250 ml at a predetermined time and the remaining water was measured on the next day to determine a total amount of the water intake. […]

[6] = Bis group: loperamide 4 mg/kg + bisacodyl 4 mg/kg

CC(=O)Oc1ccc(C(c2ccc(OC(C)=O)cc2)c2ccccn2)cc1 [Bisacodyl]
Weight of feces (Sprague Dawley (SD) rat [1]; [6]): 6.82 ± 0.35 g | Water content of the feces (Sprague Dawley (SD) rat [2]): 44.02±1.34% | Digestive tract migration rate (Sprague Dawley (SD) rat [3]; [6]): 65.02±2.86% | Number of feces remaining in the intestinal tract (Sprague Dawley (SD) rat [4]; [6]): 3.62±0.86

CN(C)C(=O)C(CCN1CCC(O)(c2ccc(Cl)cc2)CC1)(c1ccccc1)c1ccccc1 [Loperamide]
Body weight change (g) (B) − (A) ([5]; 7 days): 73.45 ± 5.48 g | Body weight (g) After test (B) ([5]; once a day for 7 days): 278.58 ± 6.82 g | Number of feces (Sprague Dawley (SD) rat [1]; Lop group: loperamide 4 mg/kg alone, 7th day after induction of constipation, Con group 55.14±2.06): 44.40±2.54 | Weight of feces (Sprague Dawley (SD) rat [1]; Lop group: loperamide 4 mg/kg alone, Con group 7.52±0.30 g): 5.02 ± 0.36 g | Digestive tract migration rate (Sprague Dawley (SD) rat [3]; Lop group: loperamide 4 mg/kg alone, Con group 68.63±2.72%): 42.10±3.49% | Number of feces remaining in the intestinal tract (Sprague Dawley (SD) rat [4]; Lop group: loperamide 4 mg/kg alone, Con group 1.86±0.55): 5.66±0.63
